In ChEMBL document CHEMBL1146337, “Efficient synthesis of substituted 7-methyl-2H,5H-pyrano[4,3-b]pyran-5-ones and evaluation of their in vitro antiproliferative/cytotoxic activities” (Bioorg Med Chem Lett, 2007) one finds inhibition, IC50 and Activity data, which are given here for twelve molecules.

For test [1], the system named is SH-SY5Y. In words: Antiproliferative activity against human SH-SY5Y cells at 50 ug/mL after 24 hrs. The test is classed as functional.
Test [2] deals with SH-SY5Y. Kind of test: Antiproliferative activity against human SH-SY5Y cells at 12.5 ug/mL after 24 hrs. It is filed as functional.
Test [3] deals with SH-SY5Y. Kind of test: Cytotoxicity against human SH-SY5Y cells after 24 hrs. The test is classed as functional, cell-based.
The test system of test [4] is SH-SY5Y. In words: Antiproliferative activity against human SH-SY5Y cells at 25 ug/mL after 24 hrs. The test is classed as functional.
Test [5] has as its system SH-SY5Y. Kind of test: Antiproliferative activity against human SH-SY5Y cells at 6.25 ug/mL after 24 hrs. The test is classed as functional.
Test [6] deals with SH-SY5Y. Kind of test: Antiproliferative activity against human SH-SY5Y cells at 1.56 ug/mL after 24 hrs. The test is classed as functional.
The subject of test [7] is SH-SY5Y. In words: Antiproliferative activity against human SH-SY5Y cells at 3.13 ug/mL after 24 hrs. It is filed as functional.
For a further test, the system named is IPC. In words: Necrotic effect in human IPC cells at 12.5 ug/mL after 3 hrs. It is filed as functional, cell-based.

Active and inactive are the calls of the source. No cut-off for these calls is given here.

In the test on SH-SY5Y [1], `Cc1cc2c(c(=O)o1)C=C1CCCCC1(C)O2` (configuration not stated) came in with an inhibition at 50 µg/mL of 60.6%. Also, in the test on SH-SY5Y [2], the inhibition at 12.5 µg/mL worked out at 1.18%. The molecule further registered an IC50 in the test on SH-SY5Y [3] of 185 µM. In the test on SH-SY5Y [4], this molecule showed an inhibition at 25 µg/mL of 11.4%.

`Cc1cc2c(c(=O)o1)C=C1C(C)(C)CCCC1(C)O2` (configuration not stated): in the test with SH-SY5Y [1], the inhibition at 50 µg/mL was found to be 75.1%. Also, in the test on SH-SY5Y [2], the inhibition at 12.5 µg/mL is 72.9%. In the test with SH-SY5Y [5], 6.25 µg/mL produced 18.4% inhibition. Moreover, the IC50 in the test on SH-SY5Y [3] stood at 31 µM. In the test with SH-SY5Y [6], this molecule displayed an inhibition at 1.56 µg/mL of 8.34%. The inhibition at 25 µg/mL in the test with SH-SY5Y [4] was 74.2%. Besides, the inhibition at 3.13 µg/mL in the test on SH-SY5Y [7] stood at 1.11%.

In the test with SH-SY5Y [1], `CCC1C=Cc2c(cc(C)oc2=O)O1` (configuration not stated) registered an inhibition at 50 µg/mL of 43.7%. In addition, at 12.5 µg/mL the inhibition with SH-SY5Y [2] was 3.62%. In the test with SH-SY5Y [3], this molecule displayed an IC50 of more than 200 µM. Further, in the test with SH-SY5Y [4], testing at 25 µg/mL gave an inhibition of 4.95%.

Consider `Cc1cc2c(c(=O)o1)C=C1C(C)(C)CC=CC1(C)O2` (configuration not stated), for which the inhibition at 50 µg/mL in the test with SH-SY5Y [1] was 84.8%. Further, in the test with SH-SY5Y [2], the inhibition at 12.5 µg/mL was determined as 51.9%. The molecule further displayed an inhibition at 6.25 µg/mL with SH-SY5Y [5] of 16.9%. The IC50 with SH-SY5Y [3] was 47 µM. The inhibition at 25 µg/mL in the test with SH-SY5Y [4] is 79.8%. Further, the inhibition at 3.13 µg/mL with SH-SY5Y [7] was found to be 6.01%.

In the test on SH-SY5Y [1], `Cc1cc2c(c(=O)o1)C=C(c1ccccc1)C(CC(C)C)O2` (configuration not stated) yielded an inhibition at 50 µg/mL of 81.7%. This molecule returned an inhibition at 12.5 µg/mL in the test with SH-SY5Y [2] of 14.6%. The same molecule displayed an IC50 in the test on SH-SY5Y [3] of 93 µM. In addition, at 25 µg/mL the inhibition in the test with SH-SY5Y [4] was 45.7%.

As for `Cc1cc2c(c(=O)o1)C=C1CCCC1O2` (configuration not stated), in the test on SH-SY5Y [1], the inhibition at 50 µg/mL was determined as 51.2%. The inhibition at 12.5 µg/mL in the test on SH-SY5Y [2] was 19.3%. In the test with SH-SY5Y [3], the midpoint of inhibition, the IC50, lay at 252 µM. In the test with SH-SY5Y [4], this molecule returned an inhibition at 25 µg/mL of 14.9%.

In the test with SH-SY5Y [1], `CC1=Cc2c(cc(C)oc2=O)OC1C` (configuration not stated) returned an inhibition at 50 µg/mL of 53.8%. This molecule came in with an IC50 with SH-SY5Y [3] of 200 µM. Moreover, at 25 µg/mL the inhibition with SH-SY5Y [4] was 43.8%.

With `CC(C)=CCCC1(C)C=Cc2c(cc(C)oc2=O)O1` (configuration not stated), the inhibition at 50 µg/mL in the test on SH-SY5Y [1] is 37.4%. This molecule had an IC50 with SH-SY5Y [3] of more than 200 µM. Besides, testing at 25 µg/mL with SH-SY5Y [4] gave an inhibition of 30.4%.

In the test on SH-SY5Y [1], `Cc1cc2c(c(=O)o1)C=C1C(C[C@H]3C[C@@H]1C3(C)C)O2` (some centres not stated) registered an inhibition at 50 µg/mL of 84.1%. The molecule further gave an inhibition at 12.5 µg/mL with SH-SY5Y [2] of 24.4%. Moreover, the IC50 in the test on SH-SY5Y [3] was found to be 70 µM. The inhibition at 25 µg/mL with SH-SY5Y [4] was found to be 67.8%.

As for `CCCCCCCCC1C=Cc2c(cc(C)oc2=O)O1` (configuration not stated), in the test with SH-SY5Y [1], at 50 µg/mL the inhibition was 83.3%. In the test with SH-SY5Y [2], 12.5 µg/mL produced 21.1% inhibition. In the test with SH-SY5Y [3], this molecule displayed an IC50 of 76 µM. This molecule had an inhibition at 25 µg/mL with SH-SY5Y [4] of 60.1%.

`Cc1cc2c(c(=O)o1)C=C(C(C)C)C(CC(C)C)O2` (configuration not stated): the outcome in the test with IPC was inactive. Testing at 50 µg/mL in the test on SH-SY5Y [1] gave an inhibition of 95.7%. In the test on SH-SY5Y [2], testing at 12.5 µg/mL gave an inhibition of 94%. Moreover, 6.25 µg/mL produced 93.8% inhibition in the test on SH-SY5Y [5]. Inhibition in the test on SH-SY5Y [3] was half-maximal at 6.7 µM (IC50). Moreover, in the test on SH-SY5Y [6], the inhibition at 1.56 µg/mL stood at 38.5%. This molecule gave an inhibition at 25 µg/mL in the test on SH-SY5Y [4] of 96.6%. The same molecule had an inhibition at 3.13 µg/mL with SH-SY5Y [7] of 87.5%.

In the test with SH-SY5Y [1], `CC1=Cc2c(cc(C)oc2=O)OC1c1ccco1` (configuration not stated) displayed an inhibition at 50 µg/mL of 64.4%. The inhibition at 12.5 µg/mL with SH-SY5Y [2] was determined as 50.6%. The same molecule displayed an inhibition at 6.25 µg/mL in the test with SH-SY5Y [5] of 30.9%. The same molecule registered an IC50 in the test with SH-SY5Y [3] of 49 µM. Also, the inhibition at 25 µg/mL with SH-SY5Y [4] was found to be 64.3%. This molecule also registered an inhibition at 3.13 µg/mL in the test with SH-SY5Y [7] of 21.6%.
